Reference: PubChem BioAssay (NCI)
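Method: 48-hour compound exposure of cells in 96-well plates, five concentrations, linear interpolation of endpoints. The concentration for 50% growth inhibition is given as GI50. TGI denotes the concentration required for complete inhibition of growth.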

Key:
Assay in all cases: DTP human tumour cell line panel, 48 h
[1] = test system: SF-539 CNS
[2] = test system: HOP-62 NSCLC
[3] = test system: KM12 colon
[4] = test system: SW-620 colon
[5] = test system: SK-OV-3 ovarian
[6] = test system: U251 CNS
[7] = test system: CAKI-1 renal
[8] = test system: NCI-H226 lung
[9] = test system: RPMI-8226 leukemia
[10] = test system: LOX IMVI melanoma

`O=c1ccc2nc3cc(Br)ccc3sc-2c1` was tested, and the TGI [1] was over 100 µM, the TGI [2] was over 100 µM and the TGI [3] was over 100 µM. It also gave a TGI [4] of over 100 µM, a TGI [5] of over 100 µM and a TGI [6] of over 100 µM. For the same compound, the TGI [7] was over 100 µM and the TGI [8] was over 100 µM.

`C[N+]1(CCC(=O)c2ccco2)CC2CCC(CC2)C1` (centres undefined) showed a TGI [1] of over 100 µM, a TGI [3] of over 100 µM and a TGI [4] of over 100 µM. For the same compound, the TGI [9] was over 100 µM, the TGI [6] was over 100 µM and the TGI [7] was over 100 µM. The TGI [8] was over 100 µM and the TGI [10] was over 100 µM.

`Nc1c(C(=O)O)nnc2cc(Cl)c(Cl)cc12` was tested, and the TGI [1] was over 100 µM, the TGI [2] was over 100 µM and the TGI [3] was over 100 µM. For the same compound, the TGI [4] was over 100 µM, the TGI [9] was over 100 µM and the TGI [5] was over 100 µM. For the same compound, the TGI [6] was over 100 µM, the TGI [7] was over 100 µM and the TGI [8] was over 100 µM. It also gave a TGI [10] of over 100 µM.

`COc1ccc(C(=O)C2=NON3OC23C(=O)c2ccc(OC)cc2)cc1` (centres undefined) was tested, and the TGI [1] was 24 µM, the TGI [2] was over 100 µM and the TGI [3] was 36.6 µM. The TGI [4] was 11.4 µM, the TGI [9] was over 50.7 µM and the TGI [5] was 33.7 µM. The TGI [6] was 30.3 µM, the TGI [7] was 6.79 µM and the TGI [8] was 33.3 µM. For the same compound, the TGI [10] was 11.4 µM.

`CN(C)c1ccc(C=Nc2ccc(Oc3ccc(Cl)cc3)c(Cl)c2)cc1` was tested, and the TGI [1] was 39.8 µM, the TGI [2] was 51.8 µM and the TGI [3] was 34.2 µM. For the same compound, the TGI [4] was over 100 µM, the TGI [9] was 72.3 µM and the TGI [5] was 55.9 µM. It also gave a TGI [6] of 34.7 µM, a TGI [7] of 67.2 µM and a TGI [8] of 63.4 µM. The TGI [10] was 47.6 µM.

For `COCC1CCCN1c1ccc(C=N/C(C#N)=C(\N)C#N)cc1` (centres undefined), the GI50 [1] was 40.3 µM, the TGI [1] was over 100 µM and the GI50 [2] was 43.6 µM. It also gave a TGI [2] of over 100 µM, a GI50 [3] of over 100 µM and a TGI [3] of over 100 µM. For the same compound, the GI50 [4] was over 100 µM, the TGI [4] was over 100 µM and the GI50 [5] was 27.5 µM. The TGI [5] was over 100 µM, the GI50 [6] was 17.2 µM and the TGI [6] was over 100 µM. For the same compound, the GI50 [8] was 4.68 µM, the TGI [8] was over 100 µM and the GI50 [10] was over 100 µM. For the same compound, the TGI [10] was over 100 µM.

Work on `COCCNCc1ccc(-c2cc3nccc(Oc4ccc(NC(=S)NC(=O)Cc5ccc(F)cc5)cc4F)c3s2)nc1` yielded a GI50 [1] of 0.909 µM, a TGI [1] of 2.41 µM and a GI50 [3] of 0.328 µM. The TGI [3] was 2 µM, the GI50 [9] was 2.04 µM and the TGI [9] was 5.13 µM. The GI50 [5] was 18.5 µM, the TGI [5] was 34.4 µM and the GI50 [6] was 1.53 µM. The TGI [6] was 2.94 µM, the GI50 [8] was 1.98 µM and the TGI [8] was 6.48 µM.

`Cn1c(=O)[nH]c2nncnc2c1=O` showed a TGI [1] of 246 µM, a TGI [2] of 181 µM and a TGI [3] of over 353 µM. It also gave a TGI [4] of over 625 µM, a TGI [9] of 389 µM and a TGI [5] of 498 µM. The TGI [6] was 312 µM, the TGI [7] was 46.5 µM and the TGI [8] was 28.7 µM. The TGI [10] was over 625 µM.

In the case of `Cn1cnc([N+](=O)[O-])c1Sc1nc(N)nc2c1ncn2C1OC(CO)C(O)C1O` (centres undefined), the TGI [1] is reported as 85.6 µM, the TGI [2] is reported as over 100 µM and the TGI [3] is reported as 32.7 µM. The TGI [4] was over 100 µM, the TGI [9] was over 95.5 µM and the TGI [5] was 45.5 µM. It also gave a TGI [6] of over 100 µM, a TGI [7] of over 100 µM and a TGI [8] of over 89.3 µM. The TGI [10] was over 21.4 µM.

For `COc1cc2oc(=O)ccc2cc1C(=O)CC(C)C`, the TGI [1] was over 100 µM, the TGI [2] was over 100 µM and the TGI [3] was over 100 µM. For the same compound, the TGI [4] was over 100 µM, the TGI [9] was over 100 µM and the TGI [5] was over 100 µM. For the same compound, the TGI [6] was over 100 µM, the TGI [7] was 42.8 µM and the TGI [8] was over 100 µM. For the same compound, the TGI [10] was over 100 µM.

Work on `Cc1coc2c1C[C@@]1(C)[C@H](CCC[C@@H]1C)[C@H]2O` yielded a TGI [1] of 62.8 µM, a TGI [2] of 75.1 µM and a TGI [3] of over 100 µM. The TGI [4] was over 100 µM, the TGI [9] was 62.3 µM and the TGI [5] was over 100 µM. The TGI [6] was over 100 µM, the TGI [7] was over 100 µM and the TGI [8] was 56 µM. The TGI [10] was over 100 µM.

In the case of `Nc1ncnc2c1sc1nc3ccccc3n12`, the TGI [1] is reported as 47.9 µM, the TGI [2] is reported as over 100 µM and the TGI [3] is reported as over 85 µM. For the same compound, the TGI [4] was over 100 µM, the TGI [9] was over 100 µM and the TGI [5] was over 100 µM. For the same compound, the TGI [6] was over 100 µM, the TGI [7] was over 100 µM and the TGI [8] was over 100 µM.

`O=c1[nH]c(Nc2ccc(Cl)c(C(F)(F)F)c2)nc2nc[nH]c12` was tested, and the TGI [1] was over 100 µM, the TGI [2] was over 100 µM and the TGI [3] was over 100 µM. The TGI [4] was over 100 µM, the TGI [9] was over 100 µM and the TGI [5] was over 100 µM. For the same compound, the TGI [6] was over 100 µM, the TGI [7] was over 100 µM and the TGI [8] was over 100 µM. For the same compound, the TGI [10] was 81.7 µM.

In the case of `N#CC12Cc3cc4c(cc3-c3cccc(c31)CCN2C(=O)c1ccccc1)OCO4` (centres undefined), the TGI [1] is reported as over 100 µM, the TGI [2] is reported as over 100 µM and the TGI [3] is reported as over 100 µM. For the same compound, the TGI [4] was over 100 µM, the TGI [9] was over 100 µM and the TGI [5] was over 100 µM. It also gave a TGI [6] of over 100 µM, a TGI [8] of over 100 µM and a TGI [10] of over 100 µM.

`OCc1cn(C(c2ccccc2)(c2ccccc2)c2ccccc2)cn1` was tested, and the TGI [2] was over 100 µM, the TGI [4] was over 100 µM and the TGI [9] was over 100 µM. It also gave a TGI [5] of over 100 µM, a TGI [6] of over 100 µM and a TGI [7] of over 100 µM. It also gave a TGI [8] of over 100 µM and a TGI [10] of over 100 µM.

With `COc1ccc2nc3c(C(=O)NCCN(C)C)cccc3cc2c1` the TGI [1] was 7.79 µM, the TGI [2] was 7.71 µM and the TGI [3] was 13 µM. For the same compound, the TGI [4] was 5.1 µM, the TGI [9] was 6.23 µM and the TGI [5] was 7.3 µM. For the same compound, the TGI [6] was 14.2 µM, the TGI [8] was 4.14 µM and the TGI [10] was 3.59 µM.

For `CC(C)(C)OC(=O)NC(CCCCNC(=O)OCc1ccccc1)C(=O)NCCNc1ccc(NCCNC(=O)C(CCCCNC(=O)OCc2ccccc2)NC(=O)OC(C)(C)C)c2c1C(=O)c1ccccc1C2=O` (centres undefined), the TGI [1] was over 52.8 µM, the TGI [2] was over 74.3 µM and the TGI [3] was over 100 µM. It also gave a TGI [4] of over 100 µM, a TGI [9] of over 27.4 µM and a TGI [5] of over 90.1 µM. The TGI [6] was 17.1 µM, the TGI [7] was over 100 µM and the TGI [8] was over 100 µM. For the same compound, the TGI [10] was over 100 µM.
